Source: patent publication US10351548B2, “2-oxo-1,2-dihydropyridine-3-carboxamide compounds and their use as inhibitors of PDK1” (INTERNATIONAL SOCIETY FOR DRUG DEVELOPMENT S.R.L., priority 2015, dated 2019)
Like-named read-outs stand apart in the source and are kept apart here.

What was measured:
Experiment in all cases: IB35 kinases profiling at 100 nM (ZLYTE)
Format in all cases: biochemical
ABL1 = ABL1 (Homo sapiens (Human), UniProt P00519); conditions: IB35 100 nM, ATP Km app
Text: (§1) The results are reported below

AMPK A2/B1/G1 = AMPK A2/B1/G1 (Homo sapiens (Human), UniProt P54646); conditions: IB35 100 nM, ATP Km app
Text: as §1

BRAF = BRAF (Homo sapiens (Human), UniProt P15056); conditions: IB35 100 nM, ATP 100
Text: as §1

BTK = BTK (Homo sapiens (Human), UniProt Q06187); conditions: IB35 100 nM, ATP Km app
Text: as §1

CAMK2A (CaMKII alpha) = CAMK2A (CaMKII alpha) (Homo sapiens (Human), UniProt Q9UQM7); conditions: IB35 100 nM, ATP Km app
Text: as §1

CDK1/cyclin B = CDK1/cyclin B (Homo sapiens (Human), UniProt P06493); conditions: IB35 100 nM, ATP Km app
Text: as §1

CDK5/p25 = CDK5/p25 (Homo sapiens (Human), UniProt Q00535); conditions: IB35 100 nM, ATP Km app
Text: as §1

CDK5/p35 = CDK5/p35 (Homo sapiens (Human), UniProt Q00535); conditions: IB35 100 nM, ATP Km app
Text: as §1

CSNK1A1 (CK1 alpha 1) = CSNK1A1 (CK1 alpha 1) (Homo sapiens (Human), UniProt P48729); conditions: IB35 100 nM, ATP Km app
Text: as §1

CSNK1G1 (CK1 gamma 1) = CSNK1G1 (CK1 gamma 1) (Homo sapiens (Human), UniProt Q9HCP0); conditions: IB35 100 nM, ATP Km app
Text: as §1

CSNK2A2 (CK2 alpha 2) = CSNK2A2 (CK2 alpha 2) (Homo sapiens (Human), UniProt P19784); conditions: IB35 100 nM, ATP Km app
Text: as §1

GSK3B (GSK3 beta) = GSK3B (GSK3 beta) (Homo sapiens (Human), UniProt P49841); conditions: IB35 100 nM, ATP Km app
Text: as §1

IRAK4 = IRAK4 (Homo sapiens (Human), UniProt Q9NWZ3); conditions: IB35 100 nM, ATP Km app
Text: as §1

MAP2K1 (MEK1) = MAP2K1 (MEK1) (Homo sapiens (Human), UniProt Q02750); conditions: IB35 100 nM; ATP 100; read-out: % Inhibition 1
Text: as §1

Chain of BTK (Q06187 whole entry): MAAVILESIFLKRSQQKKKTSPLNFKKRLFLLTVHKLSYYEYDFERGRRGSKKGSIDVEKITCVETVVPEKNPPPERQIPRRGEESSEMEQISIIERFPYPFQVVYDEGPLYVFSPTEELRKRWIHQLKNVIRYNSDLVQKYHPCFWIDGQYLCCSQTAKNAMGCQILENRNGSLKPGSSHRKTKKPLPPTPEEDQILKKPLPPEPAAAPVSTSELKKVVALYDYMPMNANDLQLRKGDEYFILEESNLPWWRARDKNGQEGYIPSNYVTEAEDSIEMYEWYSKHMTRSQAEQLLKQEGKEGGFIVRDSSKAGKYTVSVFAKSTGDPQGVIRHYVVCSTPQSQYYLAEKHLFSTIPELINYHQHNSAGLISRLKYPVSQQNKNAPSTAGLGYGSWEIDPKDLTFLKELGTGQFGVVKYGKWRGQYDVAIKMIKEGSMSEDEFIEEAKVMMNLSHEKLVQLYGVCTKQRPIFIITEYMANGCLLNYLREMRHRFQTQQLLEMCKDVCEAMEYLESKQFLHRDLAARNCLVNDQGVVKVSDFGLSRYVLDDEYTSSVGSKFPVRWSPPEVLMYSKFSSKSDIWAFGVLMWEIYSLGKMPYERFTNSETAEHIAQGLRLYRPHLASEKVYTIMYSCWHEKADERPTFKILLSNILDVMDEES
Chain of ABL1 (P00519 whole entry): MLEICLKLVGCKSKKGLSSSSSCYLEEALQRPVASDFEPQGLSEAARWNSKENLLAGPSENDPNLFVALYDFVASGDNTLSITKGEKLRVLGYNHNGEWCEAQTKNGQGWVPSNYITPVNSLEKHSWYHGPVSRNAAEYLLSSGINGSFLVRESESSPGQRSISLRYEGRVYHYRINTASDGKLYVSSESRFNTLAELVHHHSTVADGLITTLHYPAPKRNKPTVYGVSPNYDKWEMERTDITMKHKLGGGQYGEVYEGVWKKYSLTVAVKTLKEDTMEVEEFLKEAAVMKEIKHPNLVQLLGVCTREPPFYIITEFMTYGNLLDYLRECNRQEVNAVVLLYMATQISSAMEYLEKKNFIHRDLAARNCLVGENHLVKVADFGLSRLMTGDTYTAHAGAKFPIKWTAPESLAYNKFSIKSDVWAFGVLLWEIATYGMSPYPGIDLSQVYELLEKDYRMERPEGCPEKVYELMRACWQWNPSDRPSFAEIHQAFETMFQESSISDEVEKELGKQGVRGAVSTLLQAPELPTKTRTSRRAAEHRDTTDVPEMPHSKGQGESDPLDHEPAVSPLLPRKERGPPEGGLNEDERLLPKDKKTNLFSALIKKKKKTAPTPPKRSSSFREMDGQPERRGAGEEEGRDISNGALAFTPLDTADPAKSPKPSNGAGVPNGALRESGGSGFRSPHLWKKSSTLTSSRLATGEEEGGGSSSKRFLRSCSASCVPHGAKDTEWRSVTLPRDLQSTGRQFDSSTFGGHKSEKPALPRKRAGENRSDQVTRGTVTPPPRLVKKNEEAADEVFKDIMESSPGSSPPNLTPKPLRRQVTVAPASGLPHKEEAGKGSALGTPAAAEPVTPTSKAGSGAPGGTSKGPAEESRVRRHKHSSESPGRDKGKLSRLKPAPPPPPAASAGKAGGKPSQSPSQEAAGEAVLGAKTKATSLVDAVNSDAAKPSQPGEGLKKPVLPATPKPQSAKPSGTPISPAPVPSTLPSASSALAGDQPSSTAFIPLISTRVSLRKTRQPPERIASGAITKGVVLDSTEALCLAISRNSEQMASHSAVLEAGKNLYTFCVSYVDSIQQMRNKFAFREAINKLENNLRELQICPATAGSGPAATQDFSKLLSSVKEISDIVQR
Chain of GSK3B (GSK3 beta) (P49841 whole entry, species assumed): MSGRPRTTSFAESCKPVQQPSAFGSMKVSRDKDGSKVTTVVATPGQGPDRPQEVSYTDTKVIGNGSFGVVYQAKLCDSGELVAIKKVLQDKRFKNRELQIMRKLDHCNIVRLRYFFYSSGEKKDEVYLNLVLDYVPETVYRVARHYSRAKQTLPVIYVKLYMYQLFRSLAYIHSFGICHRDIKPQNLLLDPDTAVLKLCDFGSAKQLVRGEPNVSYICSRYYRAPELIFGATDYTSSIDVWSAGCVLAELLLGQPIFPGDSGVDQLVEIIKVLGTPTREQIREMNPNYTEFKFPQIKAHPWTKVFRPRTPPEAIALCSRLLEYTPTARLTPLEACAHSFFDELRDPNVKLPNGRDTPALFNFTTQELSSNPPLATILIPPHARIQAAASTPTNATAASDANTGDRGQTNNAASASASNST
Chain of BRAF (P15056 whole entry): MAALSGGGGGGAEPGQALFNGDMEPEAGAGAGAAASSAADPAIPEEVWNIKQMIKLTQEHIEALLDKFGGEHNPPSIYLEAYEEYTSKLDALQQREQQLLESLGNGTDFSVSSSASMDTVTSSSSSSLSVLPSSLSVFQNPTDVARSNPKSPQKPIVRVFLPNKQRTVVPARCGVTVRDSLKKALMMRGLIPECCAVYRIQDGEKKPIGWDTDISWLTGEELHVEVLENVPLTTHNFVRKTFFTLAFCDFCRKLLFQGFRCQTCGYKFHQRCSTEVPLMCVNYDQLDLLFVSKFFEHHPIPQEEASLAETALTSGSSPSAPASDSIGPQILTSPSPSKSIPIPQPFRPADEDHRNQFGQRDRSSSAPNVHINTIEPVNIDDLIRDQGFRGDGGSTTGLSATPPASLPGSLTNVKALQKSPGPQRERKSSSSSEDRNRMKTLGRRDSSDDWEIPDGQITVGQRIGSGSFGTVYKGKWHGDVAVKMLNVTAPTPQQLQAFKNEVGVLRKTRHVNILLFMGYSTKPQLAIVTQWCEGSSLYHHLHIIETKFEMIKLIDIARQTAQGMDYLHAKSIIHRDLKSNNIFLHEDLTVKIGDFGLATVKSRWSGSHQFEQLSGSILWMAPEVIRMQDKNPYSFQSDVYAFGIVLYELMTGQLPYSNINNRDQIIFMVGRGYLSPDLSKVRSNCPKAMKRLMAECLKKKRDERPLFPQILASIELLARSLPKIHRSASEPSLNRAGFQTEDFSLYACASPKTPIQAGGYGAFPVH
Chain of CSNK1G1 (CK1 gamma 1) (Q9HCP0 whole entry, species assumed): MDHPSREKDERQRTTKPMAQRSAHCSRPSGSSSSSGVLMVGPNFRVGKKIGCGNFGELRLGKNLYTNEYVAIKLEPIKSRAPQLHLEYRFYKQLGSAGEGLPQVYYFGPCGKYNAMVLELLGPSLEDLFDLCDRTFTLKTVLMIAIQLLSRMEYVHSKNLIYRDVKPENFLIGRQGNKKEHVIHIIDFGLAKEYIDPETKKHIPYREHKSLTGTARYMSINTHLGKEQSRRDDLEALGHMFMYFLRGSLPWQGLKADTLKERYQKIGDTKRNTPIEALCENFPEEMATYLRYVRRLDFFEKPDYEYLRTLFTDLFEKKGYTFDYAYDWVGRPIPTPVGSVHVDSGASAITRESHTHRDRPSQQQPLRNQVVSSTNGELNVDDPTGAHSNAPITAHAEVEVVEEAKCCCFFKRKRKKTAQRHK
Chain of IRAK4 (Q9NWZ3 whole entry, species assumed): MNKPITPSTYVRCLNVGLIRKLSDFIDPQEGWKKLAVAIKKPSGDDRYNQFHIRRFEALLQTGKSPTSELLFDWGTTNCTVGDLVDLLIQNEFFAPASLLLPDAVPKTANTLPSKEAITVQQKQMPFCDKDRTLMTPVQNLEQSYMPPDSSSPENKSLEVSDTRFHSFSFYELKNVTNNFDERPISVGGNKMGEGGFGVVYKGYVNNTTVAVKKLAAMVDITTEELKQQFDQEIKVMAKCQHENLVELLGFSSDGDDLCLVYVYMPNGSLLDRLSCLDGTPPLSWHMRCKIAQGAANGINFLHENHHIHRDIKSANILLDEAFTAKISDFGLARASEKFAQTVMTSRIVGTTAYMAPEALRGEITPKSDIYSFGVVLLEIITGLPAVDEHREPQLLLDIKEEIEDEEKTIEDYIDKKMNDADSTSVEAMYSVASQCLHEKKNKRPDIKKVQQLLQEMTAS
Chain of CDK1/cyclin B (P06493 whole entry): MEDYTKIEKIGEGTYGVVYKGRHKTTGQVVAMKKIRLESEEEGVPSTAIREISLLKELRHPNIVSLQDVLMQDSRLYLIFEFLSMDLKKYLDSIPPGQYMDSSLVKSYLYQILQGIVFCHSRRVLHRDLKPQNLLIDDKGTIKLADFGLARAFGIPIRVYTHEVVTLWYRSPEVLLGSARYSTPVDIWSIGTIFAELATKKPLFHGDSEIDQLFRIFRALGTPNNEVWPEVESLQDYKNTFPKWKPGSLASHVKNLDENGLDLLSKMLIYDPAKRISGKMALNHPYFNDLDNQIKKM
Chain of CDK1/cyclin B (P14635 whole entry partner): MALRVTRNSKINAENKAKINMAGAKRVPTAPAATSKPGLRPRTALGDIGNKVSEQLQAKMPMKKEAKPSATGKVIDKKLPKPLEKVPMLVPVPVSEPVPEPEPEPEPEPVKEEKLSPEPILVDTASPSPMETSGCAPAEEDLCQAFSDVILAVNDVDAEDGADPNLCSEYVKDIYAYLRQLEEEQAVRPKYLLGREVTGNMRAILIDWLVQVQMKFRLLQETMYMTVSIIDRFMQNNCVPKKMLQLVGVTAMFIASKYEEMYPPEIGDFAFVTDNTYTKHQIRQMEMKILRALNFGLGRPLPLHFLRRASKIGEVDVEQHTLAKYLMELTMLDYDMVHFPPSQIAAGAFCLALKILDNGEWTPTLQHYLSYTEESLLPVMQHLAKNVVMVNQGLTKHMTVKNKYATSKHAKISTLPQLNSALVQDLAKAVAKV
Chain of CSNK1A1 (CK1 alpha 1) (P48729 whole entry, species assumed): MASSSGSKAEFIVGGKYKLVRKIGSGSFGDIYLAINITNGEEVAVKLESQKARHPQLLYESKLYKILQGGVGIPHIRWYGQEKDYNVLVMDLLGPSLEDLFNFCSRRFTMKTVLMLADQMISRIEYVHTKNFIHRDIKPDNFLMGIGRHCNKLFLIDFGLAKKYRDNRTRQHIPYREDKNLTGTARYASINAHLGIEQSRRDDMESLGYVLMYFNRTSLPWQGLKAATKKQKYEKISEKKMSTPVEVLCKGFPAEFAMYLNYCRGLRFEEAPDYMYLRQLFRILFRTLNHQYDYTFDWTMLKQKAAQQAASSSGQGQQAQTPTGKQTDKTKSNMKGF

Structure (SMILES): O=C(CNC(=O)c1cccn(Cc2ccc(F)c(F)c2)c1=O)Nc1ccc2c(c1)/C(=C/c1cnc[nH]1)C(=O)N2 [IB35, (Z)—N-(2-((3-((1H-imidazol-5-yl)methylene)-2-oxoindolin-5-yl)amino)-2-oxoethyl)-1-(3,4-difluorobenzyl)-2-oxo-1,2-dihydro pyridine-3-carboxamide]
- inhibition at 0.1 µM (ABL1; read-out: % Inhibition 1): 17%
- inhibition at 0.1 µM (ABL1; read-out: % Inhibition 2): 12%
- inhibition at 0.1 µM (ABL1; read-out: % Inhibition Avg): 14%
- inhibition at 0.1 µM (AMPK A2/B1/G1; read-out: % Inhibition 1): 10%
- inhibition at 0.1 µM (AMPK A2/B1/G1; read-out: % Inhibition 2): 11%
- inhibition at 0.1 µM (AMPK A2/B1/G1; read-out: % Inhibition Avg): 10%
- inhibition at 0.1 µM (BRAF; read-out: % Inhibition 1): 16%
- inhibition at 0.1 µM (BRAF; read-out: % Inhibition 2): 17%
- inhibition at 0.1 µM (BRAF; read-out: % Inhibition Avg): 17%
- inhibition at 0.1 µM (BTK; read-out: % Inhibition 1): -4%
- inhibition at 0.1 µM (BTK; read-out: % Inhibition 2): -2%
- inhibition at 0.1 µM (BTK; read-out: % Inhibition Avg): -3%
- inhibition at 0.1 µM (CAMK2A (CaMKII alpha); read-out: % Inhibition 1): -1%
- inhibition at 0.1 µM (CAMK2A (CaMKII alpha); read-out: % Inhibition 2): 2%
- inhibition at 0.1 µM (CAMK2A (CaMKII alpha); read-out: % Inhibition Avg): 0%
- inhibition at 0.1 µM (CDK1/cyclin B; read-out: % Inhibition 1): 10%
- inhibition at 0.1 µM (CDK1/cyclin B; read-out: % Inhibition 2): 3%
- inhibition at 0.1 µM (CDK1/cyclin B; read-out: % Inhibition Avg): 6%
- inhibition at 0.1 µM (CDK5/p25; read-out: % Inhibition 1): -7%
- inhibition at 0.1 µM (CDK5/p25; read-out: % Inhibition 2): -10%
- inhibition at 0.1 µM (CDK5/p25; read-out: % Inhibition Avg): -8%
- inhibition at 0.1 µM (CDK5/p35; read-out: % Inhibition 1): -2%
- inhibition at 0.1 µM (CDK5/p35; read-out: % Inhibition 2): 6%
- inhibition at 0.1 µM (CDK5/p35; read-out: % Inhibition Avg): 2%
- inhibition at 0.1 µM (CSNK1A1 (CK1 alpha 1); read-out: % Inhibition 1): -3%
- inhibition at 0.1 µM (CSNK1A1 (CK1 alpha 1); read-out: % Inhibition 2): -2%
- inhibition at 0.1 µM (CSNK1A1 (CK1 alpha 1); read-out: % Inhibition Avg): -2%
- inhibition at 0.1 µM (CSNK1G1 (CK1 gamma 1); read-out: % Inhibition 1): 3%
- inhibition at 0.1 µM (CSNK1G1 (CK1 gamma 1); read-out: % Inhibition 2): 2%
- inhibition at 0.1 µM (CSNK1G1 (CK1 gamma 1); read-out: % Inhibition Avg): 3%
- inhibition at 0.1 µM (CSNK2A2 (CK2 alpha 2); read-out: % Inhibition 1): 4%
- inhibition at 0.1 µM (CSNK2A2 (CK2 alpha 2); read-out: % Inhibition 2): 3%
- inhibition at 0.1 µM (CSNK2A2 (CK2 alpha 2); read-out: % Inhibition Avg): 3%
- inhibition at 0.1 µM (GSK3B (GSK3 beta); read-out: % Inhibition 1): 23%
- inhibition at 0.1 µM (GSK3B (GSK3 beta); read-out: % Inhibition 2): 25%
- inhibition at 0.1 µM (GSK3B (GSK3 beta); read-out: % Inhibition Avg): 24%
- inhibition at 0.1 µM (IRAK4; read-out: % Inhibition 1): 3%
- inhibition at 0.1 µM (IRAK4; read-out: % Inhibition 2): -14%
- inhibition at 0.1 µM (IRAK4; read-out: % Inhibition Avg): -6%
- inhibition at 0.1 µM (MAP2K1 (MEK1)): -20%
